Assay results as given in patent publication US9546152B2 (MERCK SHARP & DOHME CORP., priority 2012, dated 2017).

What was measured:
human orexin-2 receptor [1] = biological target: T1, human orexin-2 receptor (Homo sapiens (Human), UniProt O43614); test: FLIPR Ca2+ Flux Assay, orexin-2 receptor; format: cell-based; details: CHO cells expressing the human orexin-2 receptor; agonist 70 pM Ala-6,12 human orexin-A; read-out: hOX2R FLIPR IC50
Method in brief: (§1)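 Intracellular calcium in Fluo-4-loaded CHO cells (rat OX1R or human OX2R) is monitored on a FLIPR. Compounds are given 5 min before 70 pM Ala-6,12 orexin-A, and inhibition is derived from peak height versus the uninhibited agonist peak.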

rat orexin-1 receptor = rat orexin-1 receptor (Rattus norvegicus (Rat), UniProt P56718); test: FLIPR Ca2+ Flux Assay, orexin-1 receptor; format: cell-based; details: CHO cells expressing the rat orexin-1 receptor; agonist 70 pM Ala-6,12 human orexin-A; read-out: hOX1R FLIPR IC50
Method in brief: as §1

human orexin-2 receptor [2] = biological target: T1, human orexin-2 receptor; test: radioligand binding assay, orexin-2 receptor; details: membranes prepared from CHO cells expressing the OX2 receptor; read-out: hOX2R BIND hKi

T1 sequence (O43614 whole entry): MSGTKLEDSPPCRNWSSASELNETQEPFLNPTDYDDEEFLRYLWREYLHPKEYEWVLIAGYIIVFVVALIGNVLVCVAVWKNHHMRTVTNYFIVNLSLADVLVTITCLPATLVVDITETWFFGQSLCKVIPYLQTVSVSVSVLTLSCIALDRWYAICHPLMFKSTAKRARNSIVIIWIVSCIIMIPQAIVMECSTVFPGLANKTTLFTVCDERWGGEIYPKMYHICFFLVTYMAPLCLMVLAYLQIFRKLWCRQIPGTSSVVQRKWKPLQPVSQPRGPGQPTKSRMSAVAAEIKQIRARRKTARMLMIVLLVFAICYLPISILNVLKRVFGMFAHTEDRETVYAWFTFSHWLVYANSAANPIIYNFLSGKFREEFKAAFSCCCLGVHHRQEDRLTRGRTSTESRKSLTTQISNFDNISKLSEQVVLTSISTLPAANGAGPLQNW
rat orexin-1 receptor, sequence (P56718 whole entry): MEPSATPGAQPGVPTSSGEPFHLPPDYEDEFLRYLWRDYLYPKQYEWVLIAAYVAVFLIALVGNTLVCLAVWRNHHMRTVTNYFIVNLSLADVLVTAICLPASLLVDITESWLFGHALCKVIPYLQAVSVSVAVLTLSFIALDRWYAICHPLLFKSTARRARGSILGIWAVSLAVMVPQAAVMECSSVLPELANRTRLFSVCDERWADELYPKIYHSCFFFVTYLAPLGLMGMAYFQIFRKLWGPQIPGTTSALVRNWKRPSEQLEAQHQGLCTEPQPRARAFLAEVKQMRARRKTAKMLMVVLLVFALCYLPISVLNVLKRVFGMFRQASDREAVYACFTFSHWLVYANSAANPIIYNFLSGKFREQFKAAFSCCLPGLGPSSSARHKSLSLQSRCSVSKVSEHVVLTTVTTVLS

SMILES	IC50 (human orexin-2 receptor [1])	IC50 (rat orexin-1 receptor)	Ki (human orexin-2 receptor [2])
Cc1nc(C(=O)N2C[C@H](Oc3nccc(C#N)c3C)CC[C@H]2C)c(-c2ccccc2)s1 [Example 57, 3-methyl-2-({(3R,6R)-6-methyl-1-[(2-methyl-5-phenyl-1,3-thiazol-4-yl)carbonyl]piperidin-3-yl}oxy)pyridine-4-carbonitrile]	23 nM	521 nM	1.4 nM
COc1c(C#N)ccnc1O[C@@H]1CC[C@@H](C)N(C(=O)c2ccccc2-n2nccn2)C1 [Example 96, 3-Methoxy-2-{[(3R,6R)-6-methyl-1-{[2-(2H-1,2,3-triazol-2-yl)phenyl]carbonyl}piperidin-3-yl]oxy}pyridine-4-carbonitrile]	9 nM	1260 nM	0.3 nM
CCOc1ncccc1C(=O)N1C[C@H](Oc2nccc(C#N)c2C)CC[C@H]1C [Example 68]	36 nM	> 10000 nM	5.9 nM
COc1cccc(-n2nccn2)c1C(=O)N1C[C@H](Oc2nccc(C#N)c2C)CC[C@H]1C [Example 14, 2-{[(3R,6R)-1-{[2-methoxy-6-(2H-1,2,3-triazol-2-yl)phenyl]carbonyl}-6-methylpiperidin-3-yl]oxy}-3-methylpyridine-4-carbonitrile]	15 nM	507 nM	0.2 nM
COc1c(C#N)ccnc1O[C@@H]1CC[C@@H](C)N(C(=O)c2ccccc2-c2ncccn2)C1 [Example 107, 3-methoxy-2-({(3R,6R)-6-methyl-1-[(2-pyrimidin-2-ylphenyl)carbonyl]piperidin-3-yl}oxy)pyridine-4-carbonitrile]	33 nM	2750 nM	0.4 nM
COc1ccc(C(=O)N2C[C@H](Oc3nccc(C#N)c3C)CC[C@H]2C)c(C2CC2)c1 [Example 52, 2-({(3R,6R)-1-[(2-cyclopropyl-4-methoxyphenyl)carbonyl]-6-methylpiperidin-3-yl}oxy)-3-methylpyridine-4-carbonitrile]	56 nM	7030 nM	4.4 nM
Cc1nc(C(=O)N2C[C@H](Oc3nccc(C#N)c3C)CC[C@H]2C)c(-c2ccc(F)cc2)s1 [Example 41, 2-{[(3R,6R)-1-{[5-(4-fluorophenyl)-2-methyl-1,3-thiazol-4-yl]carbonyl}-6-methylpiperidin-3-yl]oxy}-3-methylpyridine-4-carbonitrile]	48 nM	1200 nM	4.6 nM
Cc1nc(-c2ccccc2C(=O)N2C[C@H](Oc3nccc(C#N)c3C)CC[C@H]2C)no1 [Example 42, 3-methyl-2-{[(3R,6R)-6-methyl-1-{[2-(5-methyl-1,2,4-oxadiazol-3-yl)phenyl]carbonyl}piperidin-3-yl]oxy}pyridine-4-carbonitrile]	12 nM	776 nM	1 nM
COc1ccc(C(=O)N2C[C@H](Oc3nccc(C#N)c3C)CC[C@H]2C)c(-c2ccnn2C)n1 [Example 79, 2-{[(3R,6R)-1-{[6-methoxy-2-(1-methyl-1H-pyrazol-5-yl)pyridin-3-yl]carbonyl}-6-methylpiperidin-3-yl]oxy}-3-methylpyridine-4-carbonitrile]	85.6 nM	10000 nM	9.9 nM
Cc1c(C#N)ccnc1O[C@@H]1CC[C@@H](C)N(C(=O)c2ccc(Br)nc2-n2nccn2)C1 [Example 89, 2-{[(3R,6R)-1-{[6-Bromo-2-(2H-1,2,3-triazol-2-yl)pyridin-3-yl]carbonyl}-6-methylpiperidin-3-yl]oxy}-3-methylpyridine-4-carbonitrile]	29 nM	> 10000 nM	5.1 nM
CSc1c(C#N)ccnc1O[C@@H]1CC[C@@H](C)N(C(=O)c2ccccc2-n2nccn2)C1 [Example 95, 3-(Methylsulfanyl)-2-{[(3R,6R)-6-methyl-1-{[2-(2H-1,2,3-triazol-2-yl)phenyl]carbonyl}piperidin-3-yl]oxy}pyridine-4-carbonitrile]	6 nM	306 nM	0.1 nM
